Active and inactive are the calls of the source. How the calls were made is not given here.
These compounds were tested against Microphthalmia-associated transcription factor (Homo sapiens) (UniProt O75030) (assay: compounds blocking human MITF signal – biochemical, AlphaScreen, dose response (AID 1259371)). Details: AlphaScreen biochemical MITF assay, signal inhibition.
Microphthalmia-associated transcription factor (Homo sapiens), sequence (O75030 whole entry, looked up): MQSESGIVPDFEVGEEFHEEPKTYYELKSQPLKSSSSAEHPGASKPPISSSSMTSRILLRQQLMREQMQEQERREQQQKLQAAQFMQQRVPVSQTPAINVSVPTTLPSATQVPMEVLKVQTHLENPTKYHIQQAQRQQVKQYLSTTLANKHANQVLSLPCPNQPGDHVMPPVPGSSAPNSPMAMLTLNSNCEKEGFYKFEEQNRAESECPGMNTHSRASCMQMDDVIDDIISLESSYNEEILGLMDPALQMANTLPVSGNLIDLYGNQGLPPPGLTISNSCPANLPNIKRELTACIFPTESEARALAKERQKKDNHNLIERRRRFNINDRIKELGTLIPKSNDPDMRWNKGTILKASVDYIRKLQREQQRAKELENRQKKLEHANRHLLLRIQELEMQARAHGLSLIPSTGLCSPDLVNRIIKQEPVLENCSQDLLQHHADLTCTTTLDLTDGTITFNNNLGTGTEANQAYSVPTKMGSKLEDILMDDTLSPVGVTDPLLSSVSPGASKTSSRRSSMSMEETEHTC

Row | SMILES | IC50
1 | COc1ccc(/C=C2\N=C(c3ccc4c(c3)OCO4)OC2=O)cc1Cl | 757 nM
2 | Cc1cc2ncn(Cc3noc(-c4ccco4)n3)c2cc1C | > 6480 nM (inactive)
3 | CCOC(=O)C1C2NC(=S)N(c3cccc(Cl)c3)C1(C)Oc1c(OC)cccc12 (stereo not drawn) | > 5090 nM (inactive)
4 | O=C(NCc1ccccc1)N1CCN2C(=O)[C@@H]3CCCN3C(=O)[C@H]2C1 | inactive
5 | COC(=O)CCc1cc2c(C)cc(=O)oc2cc1OCc1ccc(C)cc1 | > 6480 nM (inactive)
6 | O=c1[nH]cc(N=Cc2ccc([N+](=O)[O-])o2)c(=O)[nH]1 | 7 nM
7 | CCN(CC)C(=S)NC(=O)/C=C/c1ccco1 | 89.4 nM
8 | O=C(/C=C/c1ccco1)ON1C(=O)c2ccccc2C1=O | > 6480 nM (inactive)
9 | O=C(/C=C/c1ccco1)Nc1c[nH]c(=O)[nH]c1=O | inactive
10 | N#CC(C#N)=C(N)/C(C#N)=C/c1ccc([N+](=O)[O-])o1 | 467 nM
11 | CC(O)(CNCCN1CCOCC1)COc1ccc(Cl)cc1 (stereo not drawn) | inactive
12 | OC[C@H]1OC([S-])[C@H](O)[C@@H](O)[C@@H]1O.[Au+] (stereo partly drawn) | inactive
13 | c1coc(CNc2ccc3ncc(-c4ccco4)n3n2)c1 | inactive
14 | O=C(c1ccc2nc(-c3ccco3)c(-c3ccco3)nc2c1)N1CCSCC1 | 222 nM
15 | Cc1cc(C(=O)O)ccc1-c1ccc(/C=C2/NC(=O)NC2=O)o1 | inactive
16 | CC(C)NC(=O)c1cccc(NC(=O)Nc2ccc(-c3ncnc4[nH]cc(Cl)c34)cc2)c1 | 676 nM
17 | O=C(NCc1ccccc1)N1CCN2C(=O)[C@@H]3CSCN3C(=O)[C@H]2C1 | inactive
18 | Brc1c(OCCN2CCNCC2)ccc2ccccc12 | inactive
19 | C=CCc1cc(C)ccc1OCCCCn1ccnc1 | > 6480 nM (inactive)
20 | Cc1ccc(N2C(=O)c3ccccc3NC2c2cccc([N+](=O)[O-])c2)cc1 (stereo not drawn) | > 5150 nM (inactive)
21 | O=C(/C=C/c1ccco1)Nc1nnc(-c2ccco2)s1 | > 6480 nM (inactive)
22 | O=C(Nc1ccc(Oc2ccccc2)cc1)c1ccnc(-c2cccs2)c1 | > 6710 nM (inactive)
23 | NC(=O)c1ccc2nc(-c3cccs3)sc2c1 | > 6180 nM (inactive)
24 | CC1=NN(c2ccc(C(=O)O)c(N)c2)C(=O)C1 | inactive
25 | O=C(NCCc1ccc(O)cc1)c1cccc(-c2cccs2)c1 | > 6260 nM (inactive)
26 | Cc1ccc(/C=C/C(=O)NCc2ccccn2)o1 | inactive

Row | SMILES | IC50
27 | COc1ccc(S(=O)(=O)N2CCN(Cc3ccccc3[N+](=O)[O-])CC2)cc1 | > 4330 nM (inactive)
28 | O=C(COC(=O)COc1ccc(Cl)cc1)NCc1ccco1 | > 2400 nM (inactive)
29 | CCN1CCN(Cc2coc3ccccc3c2=O)CC1 | > 6480 nM (inactive)
30 | O=C(NC1CCN(Cc2ccccc2)CC1)c1ccc2nc(-c3cccs3)sc2c1 | > 6380 nM (inactive)
31 | O=C(c1ccncc1)N1CCN(Cc2ccccc2[N+](=O)[O-])CC1 | > 6130 nM (inactive)
32 | C/C=C\C1=C(C(=O)O)N2C(=O)C(NC(=O)C(N)c3ccc(O)cc3)C2SC1 (stereo not drawn) | > 6480 nM (inactive)
33 | Cc1sc2nc(C)n3c(=O)n(CC(=O)NCc4ccco4)nc3c2c1C | inactive
34 | O=C(O)c1cccc(-n2cccc2/C=C\[N+](=O)[O-])c1 | 271 nM
35 | CCC[C@@H]1NC(=O)[C@H]2CN(C(=O)NCc3ccccc3)CCN2C1=O | 826 nM
36 | Cc1cc2c(c(=O)[nH]1)C(=O)O/C2=C\c1ccco1 | 15.3 nM
37 | COc1ccc2c(c1)CC(c1nc(Nc3ccc4cnccc4c3)c3ccccc3n1)CO2 (stereo not drawn) | > 6480 nM (inactive)
38 | CC(Oc1ccc(O)cc1)(P(=O)(O)O)P(=O)(O)O | 85.5 nM
39 | CC[C@@H]1NC(=O)[C@H]2CN(C(=O)NCc3ccccc3)CCN2C1=O | 436 nM
40 | Nc1ccc(C(=O)O)c(O)c1 | 63.5 nM
41 | CC(=O)Nc1ccc(N2C(=O)c3ccccc3C2(O)Cc2ccccc2)cc1 (stereo not drawn) | > 6480 nM (inactive)
42 | Nc1ccc(O)c(C(=O)O)c1 | 18.7 nM
43 | O=C(/C=C/c1ccco1)NCCCCNC(=O)/C=C/c1ccco1 | 180 nM
44 | O=C(Nc1ccc(Cl)cc1Cl)N1CCN2C(=O)[C@@H]3CSCN3C(=O)[C@H]2C1 | inactive
45 | CC1=NC(=S)C2C(=O)O/C(=C/c3ccc(-c4cccc([N+](=O)[O-])c4)o3)C2=C1 (stereo not drawn) | inactive
46 | O=C(OC1(C(F)(F)F)C(=O)Nc2cc3c(cc21)OCO3)c1ccc(Cl)nc1 (stereo not drawn) | 179 nM
47 | C[C@@H]1NC(=O)[C@H]2CN(C(=O)NC3CCCCC3)CCN2C1=O | inactive
48 | COc1ccc2nc(-c3ccco3)c(-c3ccco3)nc2c1 | inactive
49 | O=C(NC1CCCCC1)N1CCN2C(=O)[C@@H]3CCCN3C(=O)[C@H]2C1 | inactive
50 | CN(C)C(=O)N1CCN(S(=O)(=O)c2cccc([N+](=O)[O-])c2)CC1 | > 6480 nM (inactive)
51 | O=C1N[C@@H](COCc2ccccc2)C(=O)N2CCN(C(=O)NC3CCCCC3)C[C@H]12 | inactive
52 | O=C(NCCN1CCOCC1)c1cccc(CN(C(=O)c2nc3ccc(-c4cn[nH]c4)cc3s2)C2CC2)c1 | inactive

Row | SMILES | IC50
53 | CC1CCC(N2CCN(Cc3ccco3)CC2)CC1 (stereo not drawn) | inactive
54 | CCOC(=O)C1C2NC(=S)N(c3ccc(CC)cc3)C1(C)Oc1c(OCC)cccc12 (stereo not drawn) | > 5530 nM (inactive)
55 | COc1cc2cc3c(N)c(C(=O)Nc4sc(C)c(C)c4C#N)sc3nc2cc1OC | 409 nM
56 | COC(=O)c1ccc(=O)c2nc3/c(=C/O)c(O)cc(=O)c3[nH]c12 | 259 nM
57 | O=C1N[C@H](Cc2ccccc2)C(=O)N2CCN(C(=O)NC3CCCCC3)C[C@H]12 | 873 nM
58 | Cc1nnc(CNC(=O)c2ccc(-n3cccc3)cc2)o1 | inactive
59 | COc1cc(C=Nc2ccc(N(C)C)cc2)cc(I)c1O | > 6480 nM (inactive)
60 | O=C1c2c(O)cccc2Cc2cccc(O)c21 | 232 nM
61 | O=C(/C=C/c1ccco1)NC(=S)NNC(=O)c1ccccc1O | > 2160 nM (inactive)
62 | Cc1cccc(CN2CCN(C3CCC(C)CC3)CC2)c1 (stereo not drawn) | > 5540 nM (inactive)
63 | Cc1ccc(C)n1C(CC(=O)O)c1ccsc1 (stereo not drawn) | 255 nM
64 | CC(=O)Oc1cc(C(=O)OCC(=O)Nc2ccc(C)cc2)cc(OC(C)=O)c1OC(C)=O | inactive
65 | Cc1ccc(N2C(=O)C3C(C2=O)C2(CO)C=CC3(C)O2)cc1[N+](=O)[O-] (stereo not drawn) | > 6480 nM (inactive)
66 | O=C(c1ccc([N+](=O)[O-])cc1)N1CCN(Cc2cccc3ccccc23)CC1 | > 5480 nM (inactive)
67 | CN(C)c1ccc(O)c2c1C[C@H]1C[C@H]3[C@H](N(C)C)C(=O)C(C(N)=O)=C(O)[C@@]3(O)C(=O)C1=C2O | 29.7 nM
68 | CN(C)/C=C/C=C/C(=O)C1CCC/C(=C\C=C\N(C)C)C1=O (stereo not drawn) | 85 nM
69 | O=C(COC(=O)c1cc(-c2ccco2)nc2ccccc12)NC1CC1 | inactive
70 | C=CCNCCOCCOc1ccc(OCC)cc1 | > 6480 nM (inactive)
71 | C/C(=N\Nc1ccc(S(=O)(=O)O)cc1)c1cccc(Br)c1 | inactive
72 | COc1ccc(C)cc1NS(=O)(=O)c1ccc2c(c1)CCC(=O)N2 | inactive
73 | COc1ccc(CCNC(=O)CN2CCN(Cc3nc(-c4ccco4)cs3)CC2)cc1OC | inactive
74 | CCOc1cc(-c2ccc(I)o2)cc(=O)c2c(C)oc(C)c12 | 2.55 nM
75 | O=c1[nH]cccc1-c1ccc(Nc2nccc(-c3ccc4nc(C5CC5)[nH]c(=O)c4c3)n2)cc1 | inactive
76 | CC(C)[C@H]1NC(=O)[C@H]2CN(C(=O)NC3CCCCC3)CCN2C1=O | inactive
77 | O=C(NC1CCCCC1)N1CCN2C(=O)[C@@H]3CSCN3C(=O)[C@H]2C1 | inactive
78 | S=c1[nH]nc(-c2cccnc2)n1/N=C/C=C/c1ccco1 | 472 nM

Row | SMILES | IC50
79 | COc1ccc(C[C@@H]2NC(=O)[C@H]3CN(C(=O)NC4CCCCC4)CCN3C2=O)cc1 | inactive
80 | COc1ccc(S(=O)(=O)CCC(=O)Nc2nc3ccc(OC)cc3s2)cc1 | > 4550 nM (inactive)
81 | C=CC1=C(C)C2=Cc3c(C=C)c(C)c4[n]3[Sn+2][n]3c(c(C)c(CCC(=O)O)c3=CC3=NC(=C4)C(C)=C3CCC(=O)O)=CC1=N2 | inactive
82 | O=C(COC(=O)/C=C/c1ccco1)NCc1ccco1 | 393 nM
83 | CN(CCC#N)C(=O)COC(=O)c1c2c(nc3ccccc13)/C(=C/c1ccco1)CC2 | inactive
84 | C=CCNC(=O)COC(=O)c1cc(-c2ccco2)nc2ccccc12 | > 2310 nM (inactive)
85 | Cc1ccc(CCC(=O)Nc2ccc(-c3cn4c5c(nnc4n3)CCCC5)cc2)o1 | 306 nM
86 | C[C@@H](OCc1ccccc1)[C@@H]1NC(=O)[C@H]2CN(C(=O)NCc3ccccc3)CCN2C1=O | inactive
87 | COc1cc(CN2CCN(C3CCCC3)CC2)cc(OC)c1OC | > 6480 nM (inactive)
88 | NC(=O)c1ccccc1NC(=S)NC(=O)/C=C/c1ccco1 | 471 nM
89 | CN(C)/C=C/C=C/C(=O)c1cccc(C(=O)/C=C/C=C/N(C)C)c1O | 303 nM
90 | c1ccc(-c2ccc(OCCCCn3cncn3)cc2)cc1 | inactive
91 | CCn1ccnc1CN1CCN(Cc2cccc(OC)c2)C(CCO)C1 (stereo not drawn) | > 6480 nM (inactive)
92 | CN(C)CCS(=O)c1cc(-c2cn[nH]c2)ccc1NC(=O)[C@@H]1Cc2cc(F)ccc2CN1 (stereo partly drawn) | inactive
93 | CN1CCN(CCNC(=O)c2cccc(CN(C(=O)c3nc4ccc(-c5cn[nH]c5)cc4s3)C3CC3)c2)CC1 | 645 nM
94 | O=C1N[C@@H](CSCc2ccccc2)C(=O)N2CCN(C(=O)NC3CCCCC3)C[C@H]12 | inactive
95 | O=C(O)CSc1cc(Cl)c2nonc2c1[N+](=O)[O-] | inactive
96 | COc1cc(OC)c(C(=O)OC2CCCC2=O)cc1OC (stereo not drawn) | inactive
97 | CC(C)(C)OC(=O)N1C(C(=O)O)CSC1c1cc2c(cc1[N+](=O)[O-])OCO2 (stereo not drawn) | 916 nM
98 | Cc1ccc([N+](=O)[O-])cc1S(=O)(=O)Nc1ccc(Nc2ncccc2[N+](=O)[O-])cc1 | 423 nM
99 | CCOc1cccc(OCC)c2c(C)nc(C)c1-2 | 207 nM
100 | O=C(/C=C/c1ccco1)Nc1cccc(NC(=O)/C=C/c2ccco2)n1 | 10.4 nM
101 | CCC(C)C(=O)NCc1nnc2n1CCN(C/C=C/c1ccco1)CC2 (stereo not drawn) | 570 nM
102 | COC(=O)c1c(NC(=O)c2ccc([N+](=O)[O-])o2)sc(Cc2ccc3c(c2)OCO3)c1C | inactive
103 | Oc1ccc2c(c1)C1CCCC1(N1CCOCC1)O2 (stereo not drawn) | inactive

Source: PubChem BioAssay AID1259371 (The Scripps Research Institute Molecular Screening Center, 2018)
